{"source": "patent US20250084056A1", "about": "“SUBSTITUTED OXOISOINDOLINYL PIPERIDINE-2,6-DIONE COMPOUNDS” (BRISTOL-MYERS SQUIBB COMPANY, priority 2023, published 2025)", "key": {"pS807/811 Rb1": {"test_system": "pS807/811 Rb1", "assay": "Inhibition of RB1 phosphorylation (Western blot) in HCC1569 cells", "type": "cell-based", "conditions": "HCC1569 cancer cells, 24 h, FIG. 1B", "protocol": "(§1) The assay measured the ability of the compound to degrade Cyclin E1, inhibit RB phosphorylation, and to determine the selectivity against degradation of GSPT1 in cancer cells in vitro. HCC1569 cells (ATCC #CRL-2330) were cultured in RPMI media (Gibco, catalog A104910) supplemented with 10% FBS (Gibco, catalog 10091148). Cells were plated in tissue culture-treated 6 well plates at a density of 0.5 million cells per well in 2 mL media. The cells were then incubated overnight in a cell culture incubator (5% CO2 and 37° C.) and allowed to attach to the plate. The following day cells were dosed with compounds at the desired concentrations. Compounds were first resuspended in DMSO to make 10 mM stock, and 20 μM stock was prepared by diluting 10 mM stock in culture media. […] Total protein concentration was measured using a BCA assay kit (Thermo Scientific, cat #P123227). […] Protein was then detected by incubating blots with 2 mL of HRP detection reagent (Thermo scientific cat #A38556) for one minute at room temperature. Excess reagent was drained and gently removed on a Kimwipe and the chemiluminescence signal was detected using Fluorchem imaging system. […] Relative quantification of western blots was performed using ImageJ software, data was then normalized to loading control (β-Actin) first and then to the DMSO-treated sample. […]"}, "[1]": {"test_system": "HCC1569 breast carcinoma xenograft model", "assay": "In vivo xenograft tumor efficacy study, HCC1569", "set-up": "species or system mice", "conditions": "HCC1569 xenografts, repeated dosing", "protocol": "The anti-cancer efficacy of Example 35 was evaluated in xenograft models by measuring the reduction in tumor volume in animals treated with Example 35 compared to vehicle control animals. First, 5-10×10^6 tumor cells/animal in a 1:1 Matrigel® mix (0.2 mL total volume) were injected subcutaneously into female NSG mice (for NIHOVCAR3) and SCID mice (for HCC1569). Both strains of mice were purchased from Jackson Laboratory. Once tumors reached ˜150-200 mm^3, animals were randomized into groups of 8-10 animals/treatment arm for efficacy studies. Example 35 was administered via oral gavage (PO) at indicated doses and regimens (Table 7). Tumor growth and body weight were measured twice/week during the course of the study to evaluate efficacy and signs of toxicity.\nExample 35 was formulated in 10% ethanol, 10% Vitamin E—TPGS, 30% propylene glycol, 50% PEG400 and administered by oral gavage (final volume 0.2 mL) at the doses indicated in Table 7. […]\nThe efficacy for each treated arm at different dose levels were calculated using the following formula: % ΔT/ΔC=[(TVT−TVT0)/(TVC−TVC0)]×100%. […] The percentage of tumor growth inhibition was calculated from the formula: % TGI=[100%−(% ΔT/ΔC)]. […]\nExample 35 was evaluated for in vivo single-agent efficacy against the HCC1569 breast carcinoma xenograft model and NIHOVCAR3 ovarian adenocarcinoma xenograft model."}, "Cyclin E1": {"molecular_target": "Cyclin E1 (Homo sapiens, UniProt P24864+Q96SW2)", "sequence (P24864 whole entry)": "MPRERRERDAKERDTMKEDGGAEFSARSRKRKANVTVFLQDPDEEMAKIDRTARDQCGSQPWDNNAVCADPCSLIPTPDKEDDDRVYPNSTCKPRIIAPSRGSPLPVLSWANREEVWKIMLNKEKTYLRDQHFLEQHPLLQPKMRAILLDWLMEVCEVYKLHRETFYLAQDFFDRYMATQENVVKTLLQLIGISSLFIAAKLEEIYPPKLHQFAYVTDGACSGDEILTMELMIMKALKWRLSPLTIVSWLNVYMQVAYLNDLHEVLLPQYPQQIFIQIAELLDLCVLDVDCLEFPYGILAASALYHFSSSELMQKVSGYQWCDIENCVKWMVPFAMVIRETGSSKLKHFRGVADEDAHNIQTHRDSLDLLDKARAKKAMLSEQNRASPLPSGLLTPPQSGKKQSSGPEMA", "sequence (Q96SW2 whole entry)": "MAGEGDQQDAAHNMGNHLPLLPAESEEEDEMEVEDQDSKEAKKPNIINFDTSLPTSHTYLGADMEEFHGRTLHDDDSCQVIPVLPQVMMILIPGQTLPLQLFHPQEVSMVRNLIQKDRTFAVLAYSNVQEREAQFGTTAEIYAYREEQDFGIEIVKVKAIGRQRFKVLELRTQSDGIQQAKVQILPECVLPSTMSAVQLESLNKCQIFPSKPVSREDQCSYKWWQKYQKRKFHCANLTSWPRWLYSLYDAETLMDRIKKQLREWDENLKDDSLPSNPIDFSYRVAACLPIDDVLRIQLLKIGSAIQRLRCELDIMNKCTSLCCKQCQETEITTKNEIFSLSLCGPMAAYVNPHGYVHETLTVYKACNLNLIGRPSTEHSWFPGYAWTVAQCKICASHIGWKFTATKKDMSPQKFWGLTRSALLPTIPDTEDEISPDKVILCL", "sequence (Q16531 whole entry partner)": "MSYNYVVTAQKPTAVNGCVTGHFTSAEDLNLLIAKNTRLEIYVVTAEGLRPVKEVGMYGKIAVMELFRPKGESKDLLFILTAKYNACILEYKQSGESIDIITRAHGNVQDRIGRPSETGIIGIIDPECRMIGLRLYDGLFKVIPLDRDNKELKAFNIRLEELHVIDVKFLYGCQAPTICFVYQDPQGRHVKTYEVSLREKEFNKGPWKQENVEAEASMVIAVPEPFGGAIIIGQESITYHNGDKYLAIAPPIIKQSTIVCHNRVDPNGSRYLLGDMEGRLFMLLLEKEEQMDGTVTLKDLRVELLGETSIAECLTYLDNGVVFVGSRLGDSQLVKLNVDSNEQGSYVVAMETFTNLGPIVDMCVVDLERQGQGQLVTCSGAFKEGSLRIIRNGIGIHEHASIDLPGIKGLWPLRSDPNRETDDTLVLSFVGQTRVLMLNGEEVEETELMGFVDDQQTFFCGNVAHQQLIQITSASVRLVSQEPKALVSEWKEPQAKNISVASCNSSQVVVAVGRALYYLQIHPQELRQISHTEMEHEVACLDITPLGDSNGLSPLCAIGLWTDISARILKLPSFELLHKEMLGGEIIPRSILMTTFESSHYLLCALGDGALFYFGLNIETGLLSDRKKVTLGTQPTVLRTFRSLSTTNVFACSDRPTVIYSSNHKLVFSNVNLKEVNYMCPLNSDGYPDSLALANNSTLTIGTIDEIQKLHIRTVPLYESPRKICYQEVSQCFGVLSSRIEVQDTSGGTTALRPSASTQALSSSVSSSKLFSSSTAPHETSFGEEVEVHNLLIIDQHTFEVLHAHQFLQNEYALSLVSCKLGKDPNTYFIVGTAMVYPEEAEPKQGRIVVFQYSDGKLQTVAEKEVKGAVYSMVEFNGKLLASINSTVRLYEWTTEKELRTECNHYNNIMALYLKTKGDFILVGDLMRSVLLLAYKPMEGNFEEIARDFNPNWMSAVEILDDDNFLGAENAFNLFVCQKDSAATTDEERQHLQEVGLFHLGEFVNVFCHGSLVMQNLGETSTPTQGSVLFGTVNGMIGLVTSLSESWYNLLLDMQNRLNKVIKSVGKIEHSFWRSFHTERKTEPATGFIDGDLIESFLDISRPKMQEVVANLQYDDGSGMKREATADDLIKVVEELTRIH", "assay": "Cellular degradation of Cyclin E1 (Western blot) in HCC1569 cells", "type": "cell-based", "set-up": "endogenous in cells; host or cells: HCC1569 (ATCC CRL-2330)", "conditions": "HCC1569 cancer cells, 24 h, FIG. 1A", "protocol": "as §1"}}, "data": [{"smiles": "COc1c(COC(=O)Nc2ccc(Oc3ccc(F)c(F)c3)cc2)ccc2c1C(=O)N([C@H]1CCC(=O)NC1=O)C2", "note": "(single isomer, unassigned) [Example 35, {2-[(3 S)-2,6-dioxopiperidin-3-yl]-4-methoxy-3-oxo-2,3-dihydro-1H-isoindol-5-yl}methyl N-[4-(3,4-difluorophenoxy)phenyl]carbamate]", "values": [{"measurement": "inhibition of RB1 phosphorylation", "setting": "pS807/811 Rb1", "result": "inhibited RB1 phosphorylation"}, {"measurement": "anti-tumor activity", "setting": "[1]", "result": "dose-dependent anti-tumor activity"}, {"measurement": "degradation of Cyclin E1 protein", "setting": "Cyclin E1", "result": "induced degradation of Cyclin E1 protein in a dose dependent manner"}]}]}
